Data from US9408387B2, “Safening 6-amino-2-(substituted phenyl)-5-substituted-4-pyrimidinecarboxylate herbicide injury on cereal crops” (Dow AgroSciences LLC, priority 2009, dated 2016).

What was measured:
Assay type in all cases: in vivo
[1] = test system: spring wheat (Triticum aestivum L; TRZAS); assay: Postemergence herbicidal safening in cereal crops, greenhouse, visual injury: spring wheat
Procedure, shortened: (§1)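 Herbicide–safener mixtures and the single agents were sprayed at 187 L/ha onto greenhouse plants (14 h light, ~18 °C day, 17 °C night). Percent injury was assessed by eye at 20-22 d, and Colby's equation was used to derive expected additive activity.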

[2] = test system: spring barley (Hordeum vulgare L; HORVS); assay: Postemergence herbicidal safening in cereal crops, greenhouse, visual injury: spring barley
Procedure, shortened: as §1

[3] = test system: durum wheat (Triticum durum L; TRZDU); assay: Postemergence herbicidal safening in cereal crops, greenhouse, visual injury: durum wheat; conditions: 20-22 d
Protocol: (§2) Evaluation of Postemergence Herbicidal Safening in Cereal Crops
(§3) Seeds of the desired test plant species were planted in Sun Gro MetroMix® 306 planting mixture, which typically has a pH of 6.0 to 6.8 and an organic matter content of about 30 percent, in plastic pots with a surface area of 103.2 square centimeters (cm^2). When required to ensure good germination and healthy plants, a fungicide treatment and/or other chemical or physical treatment was applied. The plants were grown for 7-36 days (d) in a greenhouse with an approximate 14-hour (h) photoperiod which was maintained at about 18° C. during the day and 17° C. during the night. Nutrients and water were added on a regular basis and supplemental lighting was provided with overhead metal halide 1000-Watt lamps as necessary. The plants were employed for testing when they reached the second or third true leaf stage.
(§4) Treatments consisted of the acids or esters of compounds 1-10 and cloquintocet-mexyl (CQC-M), fenchlorazole-ethyl, mefenpyr-diethyl alone and in combination. Weighed amounts of acid or methyl esters of the compounds of formula (I) were dissolved in a volume of 97:3 v/v acetone/dimethylsulfoxide (DMSO) to obtain concentrated solutions. […] The concentrated solutions of the test compound were diluted with the addition of an aqueous mixture containing acetone, water, isopropyl alcohol, DMSO, Agri-Dex crop oil concentrate, and Triton® X-77 surfactant in a 64.7:26.0:6.7:2.0:0.7:0.01 v/v ratio. Test compounds were diluted to the appropriate application rate with a dilution solution which was prepared by mixing the appropriate volume of 97:3 v/v acetone/DMSO and the appropriate volume of an aqueous mixture containing acetone, water, isopropyl alcohol, DMSO, Agri-Dex crop oil concentrate, and Triton® X-77 surfactant in a 64.7:26.0:6.7:2.0:0.7:0.01 v/v ratio. Compound requirements are based upon a 12 mL application volume at a rate of 187 liters per hectare (L/ha). The concentrated solutions of the safener were prepared following the same procedure. Weighed amounts of safener were dissolved in a volume of 97:3 v/v acetone/DMSO to obtain concentrated safener solutions.
(§5) Spray solutions of the herbicide safener and test compound mixtures were prepared by adding the concentrated solutions to the appropriate amount of dilution solution to form 12 mL spray solution with active ingredients in combinations.
(§6) Formulated compounds were applied to the plant material with an overhead Mandel track sprayer equipped with 8002E nozzles calibrated to deliver 187 L/ha over an application area of 0.503 square meters (m^2) at a spray height of 18 inches (43 centimeters (cm)) above average plant canopy. Control plants were sprayed in the same manner with the solvent blank.
(§7) The treated plants and control plants were placed in a greenhouse as described above and watered by sub-irrigation to prevent wash-off of the test compounds. After 20-22 d, the condition of the test plants as compared with that of the control plants was determined visually and scored on a scale of 0 to 100 percent where 0 corresponds to no injury and 100 corresponds to complete kill.
(§8) Colby's equation was used to determine the herbicidal effects expected from the mixtures (Colby, S. R. Calculation of the synergistic and antagonistic response of herbicide combinations. Weeds 1967, 15, 20-22.).
(§9) The following equation was used to calculate the expected activity of mixtures containing two active ingredients, A and B: Expected=A+B−(A×B/100)
(§10) A=observed efficacy of active ingredient A at the same concentration as used in the mixture.
(§11) B=observed efficacy of active ingredient B at the same concentration as used in the mixture.

AMARE = assay: Postemergence herbicidal activity, greenhouse, visual injury: AMARE; conditions: 20-22 d
Protocol: as §2, §3, §4, §5, §6, §7, §8
(§12) The following equation was used to calculate the expected activity of mixtures containing two active ingredients, A and B: Expected=A+B−(A×B/100) […]

GALAP = assay: Postemergence herbicidal activity, greenhouse, visual injury: GALAP; conditions: 20-22 d
Protocol: as §2, §3, §4, §5, §6, §7, §8, §12

[4] = test system: purple deadnettle (Lamium purpureum L; LAMPU); assay: Postemergence herbicidal activity, greenhouse, visual injury: purple deadnettle
Procedure, shortened: as §1

[5] = test system: kochia (Kochia scoparia L; KCHSC); assay: Postemergence herbicidal activity, greenhouse, visual injury: kochia; conditions: for KCHSC Ob (visual injury): 20-22 d
Procedure, shortened: as §1

[6] = test system: corn poppy (Papaver rhoeas L; PAPRH); assay: Postemergence herbicidal activity, greenhouse, visual injury: corn poppy; conditions: for PAPRH Ob (visual injury): 20-22 d
Procedure, shortened: as §1

SASKR = assay: Postemergence herbicidal activity, greenhouse, visual injury: SASKR; conditions: for SASKR Ob (visual injury): 20-22 d
Protocol: as §2, §3, §4, §5, §6, §7, §8, §9, §10, §11

MATCH = assay: Postemergence herbicidal activity, greenhouse, visual injury: MATCH; conditions: for MATCH Ob (visual injury): 20-22 d
Protocol: as §2, §3, §4, §5, §6, §7, §8, §9, §10, §11

[7] = test system: wild pansy (Viola tricolor; VIOTR); assay: Postemergence herbicidal activity, greenhouse, visual injury: VIOTR
[8] = Compound 10 0, CQC-M 8.75 g ae/ha
[9] = Compound 10 0, CQC-M 17.5 g ae/ha
[10] = Compound 10 0, CQC-M 35 g ae/ha
[11] = Compound 10 0, CQC-M 70 g ae/ha
[12] = Compound 10 0, CQC-M 140 g ae/ha

CCCCCC(C)OC(=O)COc1ccc(Cl)c2cccnc12 (stereo not shown) [CQC-M, cloquintocet-mexyl, reference compound]
15%: TRZDU Ob (visual injury) ([3]; safener alone 70 g/ha)
20%: TRZDU Ob (visual injury) ([3]; safener alone 140 g/ha)
0%: pest or weed control at 0.547 g/ha ([1]; Triticum aestivum, post-emergence, 480 h, safener alone 0.547 g/ha, 20-22 d, read-out: TRZAS Ob (visual injury)) | pest or weed control at 2.1875 g/ha ([1]; Triticum aestivum, post-emergence, 480 h, safener alone 2.1875 g/ha, 20-22 d, read-out: TRZAS Ob (visual injury)) | pest or weed control at 8.75 g/ha ([1]; Triticum aestivum, post-emergence, 480 h, safener alone 8.75 g/ha, 20-22 d, read-out: TRZAS Ob (visual injury)) | pest or weed control at 35 g/ha ([1]; Triticum aestivum, post-emergence, 480 h, safener alone 35 g/ha, 20-22 d, read-out: TRZAS Ob (visual injury)) | pest or weed control at 140 g/ha ([1]; Triticum aestivum, post-emergence, 480 h, safener alone 140 g/ha, 20-22 d, read-out: TRZAS Ob (visual injury)) | TRZAS Ob (Observed values, % control) ([1]; in vivo) | pest or weed control at 0.547 g/ha ([2]; Hordeum vulgare, post-emergence, 480 h, safener alone 0.547 g/ha, 20-22 d, read-out: HORVS Ob (visual injury)) | pest or weed control at 2.1875 g/ha ([2]; Hordeum vulgare, post-emergence, 480 h, safener alone 2.1875 g/ha, 20-22 d, read-out: HORVS Ob (visual injury)) | pest or weed control at 8.75 g/ha ([2]; Hordeum vulgare, post-emergence, 480 h, safener alone 8.75 g/ha, 20-22 d, read-out: HORVS Ob (visual injury)) | HORVS Ob (Observed values, % control) ([2]; in vivo) | TRZDU Ob (visual injury) ([3]; safener alone 0.547 g/ha) | TRZDU Ob (visual injury) ([3]; safener alone 2.1875 g/ha) | TRZDU Ob (visual injury) ([3]; safener alone 8.75 g/ha) | TRZDU Ob (visual injury) ([3]; safener alone 35 g/ha) | AMARE Ob (visual injury) (AMARE; safener alone 35 g/ha) | AMARE Ob (visual injury) (AMARE; safener alone 70 g/ha) | AMARE Ob (visual injury) (AMARE; safener alone 140 g/ha) | GALAP Ob (visual injury) (GALAP; safener alone 35 g/ha) | GALAP Ob (visual injury) (GALAP; safener alone 70 g/ha) | GALAP Ob (visual injury) (GALAP; safener alone 140 g/ha) | LAMPU Ob (Observed values, % control) [4, 8] | LAMPU Ob (Observed values, % control) [4, 9] | LAMPU Ob (Observed values, % control) [4, 10] | LAMPU Ob (Observed values, % control) [4, 11] | LAMPU Ob (Observed values, % control) [4, 12] | pest or weed control at 35 g/ha ([4]; Lamium purpureum, post-emergence, 480 h, safener alone 35 g/ha, 20-22 d, read-out: LAMPU Ob (visual injury)) | pest or weed control at 140 g/ha ([4]; Lamium purpureum, post-emergence, 480 h, safener alone 140 g/ha, 20-22 d, read-out: LAMPU Ob (visual injury)) | KCHSC Ob (Observed values, % control) [5, 8] | KCHSC Ob (Observed values, % control) [5, 9] | KCHSC Ob (Observed values, % control) [5, 10] | KCHSC Ob (Observed values, % control) [5, 11] | KCHSC Ob (Observed values, % control) [5, 12] | KCHSC Ob (visual injury) ([5]; safener alone 8.75 g/ha) | KCHSC Ob (visual injury) ([5]; safener alone 70 g/ha) | KCHSC Ob (visual injury) ([5]; safener alone 140 g/ha) | PAPRH Ob (Observed values, % control) [6, 8] | PAPRH Ob (Observed values, % control) [6, 9] | PAPRH Ob (Observed values, % control) [6, 10] | PAPRH Ob (Observed values, % control) [6, 11] | PAPRH Ob (Observed values, % control) [6, 12] | PAPRH Ob (visual injury) ([6]; safener alone 8.75 g/ha) | PAPRH Ob (visual injury) ([6]; safener alone 70 g/ha) | PAPRH Ob (visual injury) ([6]; safener alone 140 g/ha) | SASKR Ob (Observed values, % control) (SASKR; [8]) | SASKR Ob (Observed values, % control) (SASKR; [9]) | SASKR Ob (Observed values, % control) (SASKR; [10]) | SASKR Ob (Observed values, % control) (SASKR; [11]) | SASKR Ob (Observed values, % control) (SASKR; [12]) | SASKR Ob (visual injury) (SASKR; safener alone 70 g/ha) | SASKR Ob (visual injury) (SASKR; safener alone 140 g/ha) | MATCH Ob (Observed values, % control) (MATCH; [8]) | MATCH Ob (Observed values, % control) (MATCH; [9]) | MATCH Ob (Observed values, % control) (MATCH; [10]) | MATCH Ob (Observed values, % control) (MATCH; [11]) | MATCH Ob (Observed values, % control) (MATCH; [12]) | MATCH Ob (visual injury) (MATCH; safener alone 70 g/ha) | MATCH Ob (visual injury) (MATCH; safener alone 140 g/ha) | VIOTR Ob (Observed values, % control) [7, 8] | VIOTR Ob (Observed values, % control) [7, 9] | VIOTR Ob (Observed values, % control) [7, 10] | VIOTR Ob (Observed values, % control) [7, 11] | VIOTR Ob (Observed values, % control) [7, 12]
